Paper PMC8745178, “Methyl 2-Halo-4-Substituted-5-Sulfamoyl-Benzoates as High Affinity and Selective Inhibitors of Carbonic Anhydrase IX” (International Journal of Molecular Sciences, 2021)

What was measured:
CAI = CAI (Homo sapiens, UniProt P00915); experiment: fluorescent thermal shift assay (FTSA), CAI; format: binding; details: 37 °C; for ΔGintr CAI: converted from Kd_intr, independent of pH; for ΔGobs CAI: converted from Kd_obs, pH 7.0, FTSA
CAII = CAII (Homo sapiens, UniProt P00918); experiment: fluorescent thermal shift assay (FTSA), CAII; format: binding; details: 37 °C; for ΔGintr CAII: converted from Kd_intr, independent of pH; for ΔGobs CAII: converted from Kd_obs, pH 7.0, FTSA
CAIII = CAIII (Homo sapiens, UniProt P07451); experiment: fluorescent thermal shift assay (FTSA), CAIII; format: binding; details: 37 °C; for ΔGintr CAIII: converted from Kd_intr, independent of pH; for ΔGobs CAIII: converted from Kd_obs, pH 7.0, FTSA
CAVB = CAVB (Homo sapiens, UniProt Q9Y2D0); experiment: fluorescent thermal shift assay (FTSA), CAVB; format: binding; details: 37 °C; for ΔGintr CAVB: converted from Kd_intr, independent of pH; for ΔGobs CAVB: converted from Kd_obs, pH 7.0, FTSA
CAVI = CAVI (Homo sapiens, UniProt P23280); experiment: fluorescent thermal shift assay (FTSA), CAVI; format: binding; details: 37 °C; for ΔGintr CAVI: converted from Kd_intr, independent of pH; for ΔGobs CAVI: converted from Kd_obs, pH 7.0, FTSA
CAVII = CAVII (Homo sapiens, UniProt P43166); experiment: fluorescent thermal shift assay (FTSA), CAVII; format: binding; details: 37 °C; for ΔGintr CAVII: converted from Kd_intr, independent of pH; for ΔGobs CAVII: converted from Kd_obs, pH 7.0, FTSA
CAIX = CAIX (Homo sapiens, UniProt Q16790); experiment: fluorescent thermal shift assay (FTSA), CAIX; format: binding; details: for ΔGobs CAIX: pH 7
CAXII = CAXII (Homo sapiens, UniProt O43570); experiment: fluorescent thermal shift assay (FTSA), CAXII; format: binding; details: 37 °C
CAXIII = CAXIII (Homo sapiens, UniProt Q8N1Q1); experiment: fluorescent thermal shift assay (FTSA), CAXIII; format: binding; details: 37 °C; for ΔGintr CAXIII: converted from Kd_intr, independent of pH; for ΔGobs CAXIII: converted from Kd_obs, pH 7.0, FTSA
CAXIV = CAXIV (Homo sapiens, UniProt Q9ULX7); experiment: fluorescent thermal shift assay (FTSA), CAXIV; format: binding; details: 37 °C; for ΔGintr CAXIV: converted from Kd_intr, independent of pH; for ΔGobs CAXIV: converted from Kd_obs, pH 7.0, FTSA
[1] = determination of pKa of the sulfonamide group by UV-VIS spectra at various pH; format: physicochemical; details: for f RSO2NH-, fraction of deprotonated sulfonamide: at pH 7.0, calculated from pKa; for pKa: calculated from spectra at various pH, 37 °C
CAVA = CAVA (Homo sapiens, UniProt P35218); experiment: fluorescent thermal shift assay (FTSA), CAVA; format: binding; details: 37 °C; for ΔGintr CAVA: converted from Kd_intr, independent of pH; for ΔGobs CAVA: converted from Kd_obs, pH 7.0, FTSA
CAIV = CAIV (Homo sapiens, UniProt P22748); experiment: fluorescent thermal shift assay (FTSA), CAIV; format: binding; details: 37 °C
[2] = converted from Kd_intr, independent of pH
[3] = converted from Kd_obs, pH 7.0, FTSA

Sequence of CAVA (P35218 39-305): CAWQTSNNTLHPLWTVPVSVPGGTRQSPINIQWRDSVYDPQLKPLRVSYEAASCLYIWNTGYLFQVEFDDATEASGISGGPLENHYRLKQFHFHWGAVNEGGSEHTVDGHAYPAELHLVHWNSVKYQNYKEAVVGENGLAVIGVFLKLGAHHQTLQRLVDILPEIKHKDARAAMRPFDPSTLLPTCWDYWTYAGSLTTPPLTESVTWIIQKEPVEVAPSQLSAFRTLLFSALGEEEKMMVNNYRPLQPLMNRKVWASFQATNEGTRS
Sequence of CAIII (P07451 whole entry): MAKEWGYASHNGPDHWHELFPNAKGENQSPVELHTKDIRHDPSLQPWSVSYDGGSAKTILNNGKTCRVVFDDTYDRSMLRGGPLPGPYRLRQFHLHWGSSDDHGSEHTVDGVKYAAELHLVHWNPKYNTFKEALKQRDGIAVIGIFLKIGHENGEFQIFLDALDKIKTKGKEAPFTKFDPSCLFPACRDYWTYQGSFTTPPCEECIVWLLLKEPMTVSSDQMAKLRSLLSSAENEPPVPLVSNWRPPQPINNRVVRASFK
Sequence of CAXIII (Q8N1Q1 whole entry): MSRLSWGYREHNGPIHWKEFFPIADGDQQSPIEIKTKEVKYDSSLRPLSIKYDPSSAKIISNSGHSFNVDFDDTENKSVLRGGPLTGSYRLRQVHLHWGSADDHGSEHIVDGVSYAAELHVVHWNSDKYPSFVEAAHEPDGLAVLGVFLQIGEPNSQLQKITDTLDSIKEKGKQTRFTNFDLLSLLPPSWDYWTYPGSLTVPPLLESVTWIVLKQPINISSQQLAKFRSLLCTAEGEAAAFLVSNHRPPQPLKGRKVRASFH
Sequence of CAXIV (Q9ULX7 16-337): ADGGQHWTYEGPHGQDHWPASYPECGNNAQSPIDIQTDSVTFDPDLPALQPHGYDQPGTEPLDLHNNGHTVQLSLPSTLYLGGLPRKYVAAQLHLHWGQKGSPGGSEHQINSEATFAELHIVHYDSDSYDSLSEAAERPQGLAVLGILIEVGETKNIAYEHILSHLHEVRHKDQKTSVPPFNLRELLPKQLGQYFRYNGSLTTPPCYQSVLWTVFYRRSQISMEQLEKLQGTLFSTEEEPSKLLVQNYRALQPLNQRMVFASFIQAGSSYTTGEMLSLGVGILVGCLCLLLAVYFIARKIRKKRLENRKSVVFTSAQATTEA
Sequence of CAI (P00915 whole entry): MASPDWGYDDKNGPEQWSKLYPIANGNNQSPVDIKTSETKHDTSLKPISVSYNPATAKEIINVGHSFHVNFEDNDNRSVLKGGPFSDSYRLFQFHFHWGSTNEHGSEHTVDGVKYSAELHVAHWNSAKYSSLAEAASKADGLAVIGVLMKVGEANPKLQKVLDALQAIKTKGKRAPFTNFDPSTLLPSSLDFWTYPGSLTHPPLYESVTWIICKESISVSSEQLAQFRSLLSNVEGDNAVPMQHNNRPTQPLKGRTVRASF
Sequence of CAVB (Q9Y2D0 34-317): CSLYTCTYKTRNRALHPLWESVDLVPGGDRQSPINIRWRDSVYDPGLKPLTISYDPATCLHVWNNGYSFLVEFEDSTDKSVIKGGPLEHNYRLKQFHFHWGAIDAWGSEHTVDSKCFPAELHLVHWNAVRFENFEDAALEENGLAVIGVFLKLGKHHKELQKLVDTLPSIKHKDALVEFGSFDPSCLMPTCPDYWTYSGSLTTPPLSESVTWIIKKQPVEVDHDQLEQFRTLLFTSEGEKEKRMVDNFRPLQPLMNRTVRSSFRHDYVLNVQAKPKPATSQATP
Sequence of CAVII (P43166 whole entry): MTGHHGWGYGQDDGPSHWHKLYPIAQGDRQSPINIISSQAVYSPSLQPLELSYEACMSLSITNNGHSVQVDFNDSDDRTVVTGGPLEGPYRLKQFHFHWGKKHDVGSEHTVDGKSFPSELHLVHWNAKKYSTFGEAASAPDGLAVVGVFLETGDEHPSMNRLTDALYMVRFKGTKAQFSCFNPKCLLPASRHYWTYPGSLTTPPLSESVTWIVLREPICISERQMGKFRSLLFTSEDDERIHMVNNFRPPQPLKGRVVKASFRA
Sequence of CAVI (P23280 18-308): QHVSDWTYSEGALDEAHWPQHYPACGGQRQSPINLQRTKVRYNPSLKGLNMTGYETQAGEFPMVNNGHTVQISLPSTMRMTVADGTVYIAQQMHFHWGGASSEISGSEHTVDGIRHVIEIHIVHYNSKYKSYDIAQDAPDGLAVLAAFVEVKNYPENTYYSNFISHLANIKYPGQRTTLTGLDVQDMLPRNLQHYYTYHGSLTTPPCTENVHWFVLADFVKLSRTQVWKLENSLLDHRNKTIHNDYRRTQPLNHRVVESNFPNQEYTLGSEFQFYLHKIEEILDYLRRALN
Sequence of CAIV (P22748 19-312): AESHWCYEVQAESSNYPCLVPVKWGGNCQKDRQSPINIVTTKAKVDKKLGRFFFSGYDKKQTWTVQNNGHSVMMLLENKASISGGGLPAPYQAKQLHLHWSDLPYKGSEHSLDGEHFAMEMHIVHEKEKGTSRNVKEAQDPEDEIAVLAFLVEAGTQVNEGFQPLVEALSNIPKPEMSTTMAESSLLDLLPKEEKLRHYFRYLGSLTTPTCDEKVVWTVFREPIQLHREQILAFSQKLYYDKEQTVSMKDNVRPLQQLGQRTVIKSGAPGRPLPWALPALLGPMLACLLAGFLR
Sequence of CAXII (O43570 25-354): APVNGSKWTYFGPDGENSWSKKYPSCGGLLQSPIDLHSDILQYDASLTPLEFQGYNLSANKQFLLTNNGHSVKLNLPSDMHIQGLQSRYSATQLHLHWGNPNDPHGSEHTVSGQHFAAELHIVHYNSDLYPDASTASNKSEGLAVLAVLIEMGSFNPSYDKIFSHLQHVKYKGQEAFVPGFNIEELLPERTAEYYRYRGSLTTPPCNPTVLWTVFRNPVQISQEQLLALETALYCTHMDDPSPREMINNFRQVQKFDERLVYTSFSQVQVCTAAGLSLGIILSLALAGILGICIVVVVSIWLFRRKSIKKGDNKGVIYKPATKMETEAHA

Row | SMILES | ΔGintr CAI (CAI) | ΔGobs CAI (CAI) | ΔGintr CAII (CAII) | ΔGobs CAII (CAII) | ΔGintr CAIII (CAIII) | ΔGobs CAIII (CAIII) | ΔGintr CAVB (CAVB) | ΔGobs CAVB (CAVB) | ΔGintr CAVI (CAVI) | ΔGobs CAVI (CAVI) | ΔGintr CAVII (CAVII) | ΔGobs CAVII (CAVII) | ΔGintr CAIX (CAIX) | ΔGobs CAIX (CAIX) | ΔGintr CAXIII (CAXIII) | ΔGobs CAXIII (CAXIII) | ΔGintr CAXIV (CAXIV) | ΔGobs CAXIV (CAXIV) | f RSO2NH-, fraction of deprotonated sulfonamide [1] | pKa [1] | further results
1 | COC(=O)c1cc(S(N)(=O)=O)c(Br)cc1Br [Compound 2, Methyl 2,4-dibromo-5-sulfamoyl-benzoate] | -9.27 kcal/mol | -6.67 kcal/mol | -13 kcal/mol | -9.99 kcal/mol | ≥ -8.7 kcal/mol | ≥ -5.26 kcal/mol | -13.6 kcal/mol | -10.6 kcal/mol | -13.3 kcal/mol | -9.3 kcal/mol | -13.5 kcal/mol | -10.3 kcal/mol | -13.2 kcal/mol | -9.85 kcal/mol | -12.8 kcal/mol | -10.2 kcal/mol | -13.6 kcal/mol | -10.5 kcal/mol | 1.6% | 8.8 | ΔGintr CAXII (CAXII; [2]): -12.3 kcal/mol; ΔGobs CAXII (CAXII; [3]): -9.2 kcal/mol
2 | COC(=O)c1cc(S(N)(=O)=O)c(SCc2ccccc2)cc1Cl [Compound 3c, Methyl 4-(benzylsulfanyl)-2-chloro-5-sulfamoylbenzoate] | -10.9 kcal/mol | -7.31 kcal/mol | -13.9 kcal/mol | -9.87 kcal/mol | -10.3 kcal/mol | -5.81 kcal/mol | -11.5 kcal/mol | -7.53 kcal/mol | -14.2 kcal/mol | -9.15 kcal/mol | -13.8 kcal/mol | -9.68 kcal/mol | -16.4 kcal/mol | -12.1 kcal/mol | -14.1 kcal/mol | -10.5 kcal/mol | -14.6 kcal/mol | -10.5 kcal/mol | 0.3% | 9.5 | ΔGintr CAVA (CAVA): ≥ -9.06 kcal/mol; ΔGobs CAVA (CAVA): ≥ -5.26 kcal/mol
3 | COC(=O)c1cc(S(N)(=O)=O)c(SC2CCCCCCCCCCC2)cc1Cl [Compound 3e, Methyl 2-chloro-4-(cyclododecylsulfanyl)-5-sulfamoylbenzoate] | -10.7 kcal/mol | -7 kcal/mol | -13.3 kcal/mol | -9.08 kcal/mol | ≥ -9.82 kcal/mol | ≥ -5.26 kcal/mol | -10 kcal/mol | -5.93 kcal/mol | -13.3 kcal/mol | -8.08 kcal/mol | -12 kcal/mol | -7.77 kcal/mol | -17.7 kcal/mol | -13.3 kcal/mol | -14.5 kcal/mol | -10.8 kcal/mol | -14.8 kcal/mol | -10.5 kcal/mol | 0.3% | 9.6 | ΔGintr CAIV (CAIV; [2]): -14 kcal/mol; ΔGobs CAIV (CAIV; [3]): -9.51 kcal/mol; ΔGintr CAVA (CAVA): ≥ -9.2 kcal/mol; ΔGobs CAVA (CAVA): ≥ -5.26 kcal/mol
4 | COC(=O)c1cc(S(N)(=O)=O)c(SC2CCCCC2)cc1Br [Compound 4b, Methyl 2-bromo-4-(cyclohexylsulfanyl)-5-sulfamoylbenzoate] | -11.1 kcal/mol | -7.34 kcal/mol | -13.7 kcal/mol | -9.51 kcal/mol | -10.7 kcal/mol | -6.14 kcal/mol | -11.9 kcal/mol | -7.77 kcal/mol | -14.1 kcal/mol | -8.87 kcal/mol | -13.7 kcal/mol | -9.44 kcal/mol | -18.5 kcal/mol | -14.1 kcal/mol | -14.4 kcal/mol | -10.6 kcal/mol | -15.2 kcal/mol | -10.9 kcal/mol | 0.3% | – | ΔGintr CAVA (CAVA): ≥ -9.2 kcal/mol; ΔGobs CAVA (CAVA): ≥ -5.26 kcal/mol
